Measured values from patent US20260256792A1, “TREATMENT OF CHRONIC SPONTANEOUS URTICARIA BY ADMINISTERING (R)-2-[3-[4-AMINO-3-(2-FLUORO-4-PHENOXY-PHENYL)PYRAZOLO[3,4-D]PYRIMIDIN-1-YL]PIPERIDINE-1-CARBONYL]-4-METHYL-4-[4-(OXETAN-3-YL)PIPERAZIN-1-YL]PENT-2-ENENITRILE” (priority 2023, published 2026).

Tested on: moderate-to-severe chronic spontaneous urticaria (CSU)
Test: Phase 2 CSU study: itch severity score over 7 days (ISS7)
Type: in vivo, human
Settings: for Change from Baseline in ISS7 at Week 12, Mean / Change from Baseline in ISS7 at Week 12, LS Mean / Change from Baseline in ISS7 at Week 12, LS Mean Diff vs. placebo: Omalizumab-naïve population; for ISS7 change from baseline at Week 12, LS Mean / ISS7 change from baseline at Week 12, LS Mean Diff vs. placebo: ANCOVA
Description: The study comprises a 12 week, randomized, double-blind, placebo-controlled, multi-center, dose-ranging efficacy and safety phase, followed by a 40 week open label extension (OLE) phase (see FIG. 1). The study consists of three phases and an optional OLE phase. […] Clinically, CSU is characterized by the spontaneous and recurrent appearance of pruritic hives. The proposed primary endpoints were the UAS7 at Week 12 in EU and EU reference countries and the ISS7 in the US. Regardless of where a participant was from, all assessments were the same. The UAS7 score is a composite score containing both the HSS7 and the ISS7. This allowed a global assessment of the two key components of urticaria: hives and itch. […] The UAS is a validated PRO measure. […] The daily UAS scores range from 0 to 6 point/day. […] Patients were to complete the UAS using the e-diary. […] The following secondary endpoints were to be analyzed using the same approach as for the primary endpoint: • Change from baseline in UAS7 at Week 4 • Change from baseline in UAS7 at Week 12 (for US and US reference countries) • Change from baseline in ISS7 at Week 12 (except US and US reference countries) • Change from baseline in HSS7 at Week 12

[1] = 400 mg TID, Baseline ISS7 score <13
[2] = 400 mg TID, Baseline ISS7 score ≥13
[3] = 400 mg TID, Baseline Total IgE (IU/mL) <100
[4] = 400 mg TID, Baseline Total IgE (IU/mL) <300
[5] = 400 mg TID, Baseline Total IgE (IU/mL) ≥100
[6] = 400 mg TID, Baseline Total IgE (IU/mL) ≥300
[7] = 400 mg TID, Baseline UAS7 score <28
[8] = 400 mg TID, Baseline UAS7 score ≥28
[9] = 400 mg TID, Duration of disease (years) 2-10
[10] = 400 mg TID, Duration of disease (years) <2
[11] = 400 mg TID, Duration of disease (years) >10
[12] = 400 mg TID, Ethnicity Non-Hispanic
[13] = 400 mg TID, History of angioedema No
[14] = 400 mg TID, History of angioedema Yes
[15] = 400 mg TID, Race All the Others
[16] = 400 mg TID, Region Eastern Europe
[17] = 400 mg TID, Region Latin America
[18] = 400 mg TID, Region Western Countries
[19] = 400 mg TID, omalizumab-naïve population
[20] = 400 mg TID, omalizumab-naïve population with outlier removed
[21] = End of Study, 400 mg BID, Omalizumab-Naïve

For `CC(C)(C=C(C#N)C(=O)N1CCC[C@@H](n2nc(-c3ccc(Oc4ccccc4)cc3F)c3c(N)ncnc32)C1)N1CCN(C2COC2)CC1` [rilzabrutinib, (R)-2-[3-[4-amino-3-(2-fluoro-4-phenoxy-phenyl)pyrazolo[3,4-d]pyrimidin-1-yl]piperidine-1-carbonyl]-4-methyl-4-[4-(oxetan-3-yl)piperazin-1-yl]pent-2-enenitrile], the “Change from Baseline in ISS7 at Week 12, Mean” value (400 mg TID, Baseline H1-antihistamines dose 2 to 4-fold standard dose) was −12.76, the “Change from Baseline in ISS7 at Week 12, LS Mean” value [1] was −3.73 and the “Change from Baseline in ISS7 at Week 12, LS Mean Diff vs. placebo” value [1] was −1.01. The “Change from Baseline in ISS7 at Week 12, Mean” value [1] was −3.50, the “Change from Baseline in ISS7 at Week 12, LS Mean” value [2] was −10.18 and the “Change from Baseline in ISS7 at Week 12, LS Mean Diff vs. placebo” value [2] was −4.45. The “Change from Baseline in ISS7 at Week 12, Mean” value [2] was −10.79, the “Change from Baseline in ISS7 at Week 12, LS Mean” value [3] was −9.19 and the “Change from Baseline in ISS7 at Week 12, LS Mean Diff vs. placebo” value [3] was −4.95. The “Change from Baseline in ISS7 at Week 12, Mean” value [3] was −11.17, the “Change from Baseline in ISS7 at Week 12, LS Mean” value [4] was −9.55 and the “Change from Baseline in ISS7 at Week 12, LS Mean Diff vs. placebo” value [4] was 5.04. For the same compound, the “Change from Baseline in ISS7 at Week 12, LS Mean” value [5] was −9.13, the “Change from Baseline in ISS7 at Week 12, LS Mean Diff vs. placebo” value [5] was −3.10 and the “Change from Baseline in ISS7 at Week 12, Mean” value [5] was −9.49. The “Change from Baseline in ISS7 at Week 12, LS Mean” value [6] was −8.12, the “Change from Baseline in ISS7 at Week 12, LS Mean Diff vs. placebo” value [6] was −1.58 and the “Change from Baseline in ISS7 at Week 12, Mean” value [6] was 8.74. For the same compound, the “Change from Baseline in ISS7 at Week 12, LS Mean” value [7] was −6.43, the “Change from Baseline in ISS7 at Week 12, LS Mean Diff vs. placebo” value [7] was −3.26 and the “Change from Baseline in ISS7 at Week 12, Mean” value [7] was −7.61. The “Change from Baseline in ISS7 at Week 12, LS Mean” value [8] was −10.62, the “Change from Baseline in ISS7 at Week 12, LS Mean Diff vs. placebo” value [8] was −4.02 and the “Change from Baseline in ISS7 at Week 12, Mean” value [8] was −11.99. The “Change from Baseline in ISS7 at Week 12, LS Mean” value [9] was −8.84, the “Change from Baseline in ISS7 at Week 12, LS Mean Diff vs. placebo” value [9] was −1.82 and the “Change from Baseline in ISS7 at Week 12, Mean” value [9] was −9.37. For the same compound, the “Change from Baseline in ISS7 at Week 12, LS Mean” value [10] was −9.77, the “Change from Baseline in ISS7 at Week 12, LS Mean Diff vs. placebo” value [10] was −6.12 and the “Change from Baseline in ISS7 at Week 12, Mean” value [10] was −10.93. For the same compound, the “Change from Baseline in ISS7 at Week 12, LS Mean” value [11] was −9.33, the “Change from Baseline in ISS7 at Week 12, LS Mean Diff vs. placebo” value [11] was −5.64 and the “Change from Baseline in ISS7 at Week 12, Mean” value [11] was −11.00. The “Change from Baseline in ISS7 at Week 12, LS Mean” value (400 mg TID, Ethnicity Hispanic) was 7.36, the “Change from Baseline in ISS7 at Week 12, LS Mean Diff vs. placebo” value (400 mg TID, Ethnicity Hispanic) was −0.35 and the “Change from Baseline in ISS7 at Week 12, Mean” value (400 mg TID, Ethnicity Hispanic) was −8.13. For the same compound, the “Change from Baseline in ISS7 at Week 12, LS Mean” value [12] was −10.16, the “Change from Baseline in ISS7 at Week 12, LS Mean Diff vs. placebo” value [12] was −5.69 and the “Change from Baseline in ISS7 at Week 12, Mean” value [12] was −11.83. For the same compound, the “Change from Baseline in ISS7 at Week 12, Mean” value (400 mg TID, Gender Male) was −7.08, the “Change from Baseline in ISS7 at Week 12, LS Mean” value [13] was −9.56 and the “Change from Baseline in ISS7 at Week 12, LS Mean Diff vs. placebo” value [13] was −4.22. The “Change from Baseline in ISS7 at Week 12, Mean” value [13] was −10.86, the “Change from Baseline in ISS7 at Week 12, LS Mean” value [14] was −8.24 and the “Change from Baseline in ISS7 at Week 12, LS Mean Diff vs. placebo” value [14] was −2.99. The “Change from Baseline in ISS7 at Week 12, Mean” value [14] was −9.01, the “ISS7 at Week 12, Mean” value (400 mg TID, ITT population) was 5.59 and the “ISS7 at Week 12, Median” value (400 mg TID, ITT population) was 6.00. For the same compound, the “ISS7 change from baseline at Week 12, Mean” value (400 mg TID, ITT population) was −10.68, the “ISS7 change from baseline at Week 12, Median” value (shortened to “ISS7 change … Median”) (400 mg TID, ITT population) was −10.67 and the “LS mean change from baseline in ISS7 at Week 12” value (from here on “LS mean change from baseline”) (400 mg TID, ITT population) was −9.58 points. For the same compound, the “ISS7 change from baseline at Week 12, LS Mean” value (400 mg TID, ITT population) was −9.58 points, the “ISS7 change from baseline at Week 12, LS Mean Diff vs. placebo” value (shortened to “ISS7 change … LS Mean Diff vs. placebo”) (400 mg TID, ITT population) was −3.26 and the “decrease from baseline in ISS7” value (400 mg TID, ITT population, belongs to LS mean change −6.65) was 40.41%. For the same compound, the “LS mean change in ISS7 from baseline (see Table 29)” value (400 mg TID, ITT population, following one week of treatment) was −6.65 points, the “Change from Baseline in ISS7 at Week 12, LS Mean” value [15] was −8.74 and the “Change from Baseline in ISS7 at Week 12, LS Mean Diff vs. placebo” value [15] was −5.27. For the same compound, the “Change from Baseline in ISS7 at Week 12, Mean” value [15] was −8.74, the “Change from Baseline in ISS7 at Week 12, LS Mean” value (400 mg TID, Race White) was −9.18 and the “Change from Baseline in ISS7 at Week 12, LS Mean Diff vs. placebo” value (400 mg TID, Race White) was −3.17. The “Change from Baseline in ISS7 at Week 12, Mean” value (400 mg TID, Race White) was −10.88, the “Change from Baseline in ISS7 at Week 12, LS Mean” value (400 mg TID, Region Asia) was −8.33 and the “Change from Baseline in ISS7 at Week 12, LS Mean Diff vs. placebo” value (400 mg TID, Region Asia) was −4.87. The “Change from Baseline in ISS7 at Week 12, Mean” value (400 mg TID, Region Asia) was −8.21, the “Change from Baseline in ISS7 at Week 12, LS Mean” value [16] was −14.02 and the “Change from Baseline in ISS7 at Week 12, LS Mean Diff vs. placebo” value [16] was −1.35. For the same compound, the “Change from Baseline in ISS7 at Week 12, Mean” value [16] was −13.17, the “Change from Baseline in ISS7 at Week 12, LS Mean” value [17] was −6.07 and the “Change from Baseline in ISS7 at Week 12, LS Mean Diff vs. placebo” value [17] was 0.52. For the same compound, the “Change from Baseline in ISS7 at Week 12, Mean” value [17] was −7.34, the “Change from Baseline in ISS7 at Week 12, LS Mean” value [18] was 9.58 and the “Change from Baseline in ISS7 at Week 12, LS Mean Diff vs. placebo” value [18] was −5.03. For the same compound, the “Change from Baseline in ISS7 at Week 12, Mean” value [18] was −11.79, the “ISS7 at Week 12, Mean” value [19] was 5.77 and the “ISS7 at Week 12, Median” value [19] was 7.00. For the same compound, the “ISS7 change from baseline at Week 12, Mean” value [19] was −10.27, the “ISS7 change … Median” value [19] was −10.33 and the “LS mean change from baseline” value [19] was −9.21. For the same compound, the “LS mean reduction in ISS7 (see Table 30)” value [19] was −6.13, the “ISS7 at Week 12, Mean” value [20] was 5.77 and the “ISS7 at Week 12, Median” value [20] was 7.00. For the same compound, the “ISS7 change from baseline at Week 12, Mean” value [20] was −10.27, the “ISS7 change … Median” value [20] was −10.33 and the “ISS7 change from baseline at Week 12, LS Mean” value [20] was −9.57 points. For the same compound, the “ISS7 change … LS Mean Diff vs. placebo” value [20] was −3.86, the “LS mean change from baseline” value (400 mg TID, omalizumab-naïve population, outlier removed) was −9.57 and the “ISS7 change from baseline at Week 12, LS Mean” value [19] was −9.21 points. For the same compound, the “ISS7 change … LS Mean Diff vs. placebo” value [19] was −3.44, the “ISS7 Mean (SD)” value [21] was 7.80 (8.76) and the “ISS7 Median” value [21] was 7.00. The “ISS7 Mean (SD)” value (End of Study, 400 mg QPM, Omalizumab-Naïve) was 5.74 (8.03).
